Test results from ChEMBL document CHEMBL1148543, “Discovery of A-770041, a src-family selective orally active lck inhibitor that prevents organ allograft rejection” (Bioorg Med Chem Lett, 2006).
Each block holds one compound with its values, some of them ahead of it.

Experiments:
[1] = biological target: T1, Tyrosine-protein kinase Lck (Homo sapiens, UniProt P06239); experiment: Inhibitory activity against anti-CD3 mAb-induced IL2 production in human whole blood; assay type: functional, tissue-based
[2] = biological target: Tyrosine-protein kinase Fyn (Homo sapiens, UniProt P06241); experiment: Inhibitory activity against fyn
[3] = biological target: T1, Tyrosine-protein kinase Lck; experiment: Inhibitory activity against lck
[4] = biological target: Proto-oncogene tyrosine-protein kinase Src (Homo sapiens, UniProt P12931); experiment: Inhibitory activity against src
[5] = biological target: Proto-oncogene tyrosine-protein kinase LCK (Mus musculus) (UniProt P06240)
[6] = biological target: T2, Tyrosine-protein kinase ZAP-70 (Homo sapiens, UniProt P43403); experiment: Inhibitory activity against ZAP70
T2 sequence (P43403 whole entry): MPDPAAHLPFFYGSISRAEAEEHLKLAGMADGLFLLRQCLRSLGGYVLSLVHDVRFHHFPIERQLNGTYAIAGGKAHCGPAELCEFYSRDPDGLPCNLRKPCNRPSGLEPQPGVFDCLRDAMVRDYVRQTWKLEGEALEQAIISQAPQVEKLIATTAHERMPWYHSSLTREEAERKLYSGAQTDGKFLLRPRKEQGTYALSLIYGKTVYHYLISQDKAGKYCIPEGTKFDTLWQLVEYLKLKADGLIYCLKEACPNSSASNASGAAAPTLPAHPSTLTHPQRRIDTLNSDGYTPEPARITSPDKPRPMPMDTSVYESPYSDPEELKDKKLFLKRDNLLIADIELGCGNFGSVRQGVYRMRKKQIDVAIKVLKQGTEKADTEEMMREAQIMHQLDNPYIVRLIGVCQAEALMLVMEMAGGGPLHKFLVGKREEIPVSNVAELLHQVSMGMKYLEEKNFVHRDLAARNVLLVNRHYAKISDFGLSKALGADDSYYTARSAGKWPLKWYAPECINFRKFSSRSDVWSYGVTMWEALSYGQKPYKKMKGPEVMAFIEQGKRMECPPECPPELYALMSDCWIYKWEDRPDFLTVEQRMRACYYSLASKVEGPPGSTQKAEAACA

[7] = Plasma clearance in mouse; assay type: ADME, organism-based
[8] = biological target: Tyrosine-protein kinase Lyn (Homo sapiens, UniProt P07948); experiment: Inhibitory activity against lyn
[9] = Tmax in mouse; assay type: ADME, organism-based; settings: in vivo
[10] = Half life in rat; assay type: ADME, organism-based; settings: in vivo
[11] = Volume of distribution in rat; assay type: ADME, organism-based; settings: in vivo, read-out: Vdss
[12] = Cmax in mouse; assay type: ADME, organism-based; settings: in vivo
Rattus norvegicus [13] = experiment: Plasma concentration in rat at 10 mg/kg/day; assay type: ADME, organism-based; settings: in vivo
[14] = Cmax in rat; assay type: ADME, organism-based; settings: in vivo
Rattus norvegicus [15] = species on record: Rattus norvegicus; experiment: Plasma concentration in rat at […]; assay type: ADME, organism-based; settings: in vivo
[16] = Oral bioavailability in mouse; assay type: ADME, organism-based; settings: in vivo
Rattus norvegicus [17] = experiment: Plasma concentration in rat at 5 mg/kg/day; assay type: ADME, organism-based; settings: in vivo
[18] = Volume of distribution in mouse; assay type: ADME, organism-based; settings: in vivo, read-out: Vdss
[19] = biological target: Mitogen-activated protein kinase kinase kinase 8 (Homo sapiens, UniProt P41279); experiment: Inhibitory activity against COT
[20] = Half life in mouse; assay type: ADME, organism-based; settings: in vivo
[21] = biological target: Proto-oncogene tyrosine-protein kinase LCK (Mus musculus, UniProt P06240); experiment: Inhibition of TCR stimulated IL2 production in mice administered orally; assay type: functional
[22] = Tmax in rat; assay type: ADME, organism-based; settings: in vivo
[23] = biological target: Tyrosine-protein kinase Fgr (Homo sapiens, UniProt P09769); experiment: Inhibitory activity against fgr
[24] = Plasma clearance in rat; assay type: ADME, organism-based
[25] = biological target: Tyrosine-protein kinase SYK (Homo sapiens, UniProt P43405); experiment: Inhibitory activity against Syk
[26] = Oral bioavailability in rat; assay type: ADME, organism-based; settings: in vivo
Angiopoietin-1 receptor = Angiopoietin-1 receptor (Homo sapiens, UniProt Q02763); experiment: Inhibitory activity against tie2
Chain of Angiopoietin-1 receptor (Q02763 whole entry): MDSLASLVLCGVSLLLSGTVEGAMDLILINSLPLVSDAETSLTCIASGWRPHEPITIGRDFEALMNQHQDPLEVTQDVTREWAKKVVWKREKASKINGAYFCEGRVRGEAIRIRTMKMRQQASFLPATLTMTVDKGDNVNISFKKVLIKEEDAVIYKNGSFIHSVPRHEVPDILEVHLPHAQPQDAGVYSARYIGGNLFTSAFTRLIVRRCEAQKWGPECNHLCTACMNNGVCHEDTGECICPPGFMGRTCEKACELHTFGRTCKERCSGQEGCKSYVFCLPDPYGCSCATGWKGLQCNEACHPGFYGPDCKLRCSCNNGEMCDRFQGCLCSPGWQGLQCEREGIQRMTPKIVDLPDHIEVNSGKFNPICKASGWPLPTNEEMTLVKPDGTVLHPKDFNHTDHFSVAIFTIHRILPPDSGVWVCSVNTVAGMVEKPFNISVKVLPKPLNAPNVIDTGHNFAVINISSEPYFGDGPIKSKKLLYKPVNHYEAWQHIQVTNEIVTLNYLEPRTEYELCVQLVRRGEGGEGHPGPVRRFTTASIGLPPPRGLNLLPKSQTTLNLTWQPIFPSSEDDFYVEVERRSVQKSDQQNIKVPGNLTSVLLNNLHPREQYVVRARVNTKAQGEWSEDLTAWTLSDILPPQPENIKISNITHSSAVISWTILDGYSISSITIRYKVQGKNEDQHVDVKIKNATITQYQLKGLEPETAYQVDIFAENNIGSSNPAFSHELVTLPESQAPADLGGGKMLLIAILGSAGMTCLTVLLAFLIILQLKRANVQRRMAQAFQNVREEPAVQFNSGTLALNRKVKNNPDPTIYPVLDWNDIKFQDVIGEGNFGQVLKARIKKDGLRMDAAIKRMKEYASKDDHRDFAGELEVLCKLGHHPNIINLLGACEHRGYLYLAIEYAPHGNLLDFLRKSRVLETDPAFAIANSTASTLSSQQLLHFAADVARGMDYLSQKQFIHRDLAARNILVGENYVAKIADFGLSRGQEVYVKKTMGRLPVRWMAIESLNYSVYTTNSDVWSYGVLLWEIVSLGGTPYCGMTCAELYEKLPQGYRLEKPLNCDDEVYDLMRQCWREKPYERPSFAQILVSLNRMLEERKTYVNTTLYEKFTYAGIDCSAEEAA

T1 sequence (P06239 whole entry): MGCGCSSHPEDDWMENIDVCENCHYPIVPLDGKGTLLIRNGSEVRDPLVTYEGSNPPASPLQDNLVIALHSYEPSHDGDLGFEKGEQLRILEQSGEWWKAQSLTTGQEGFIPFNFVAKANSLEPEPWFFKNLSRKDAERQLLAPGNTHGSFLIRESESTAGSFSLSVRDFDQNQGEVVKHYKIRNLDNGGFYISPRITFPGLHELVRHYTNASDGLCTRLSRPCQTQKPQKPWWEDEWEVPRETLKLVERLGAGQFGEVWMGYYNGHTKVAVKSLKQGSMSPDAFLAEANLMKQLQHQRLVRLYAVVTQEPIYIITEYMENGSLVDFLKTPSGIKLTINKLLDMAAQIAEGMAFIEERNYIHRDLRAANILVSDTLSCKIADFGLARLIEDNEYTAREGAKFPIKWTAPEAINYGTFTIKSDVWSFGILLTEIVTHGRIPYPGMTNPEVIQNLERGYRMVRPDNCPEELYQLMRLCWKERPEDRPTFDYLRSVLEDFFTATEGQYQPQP
Chain of Tyrosine-protein kinase Fyn (P06241 whole entry): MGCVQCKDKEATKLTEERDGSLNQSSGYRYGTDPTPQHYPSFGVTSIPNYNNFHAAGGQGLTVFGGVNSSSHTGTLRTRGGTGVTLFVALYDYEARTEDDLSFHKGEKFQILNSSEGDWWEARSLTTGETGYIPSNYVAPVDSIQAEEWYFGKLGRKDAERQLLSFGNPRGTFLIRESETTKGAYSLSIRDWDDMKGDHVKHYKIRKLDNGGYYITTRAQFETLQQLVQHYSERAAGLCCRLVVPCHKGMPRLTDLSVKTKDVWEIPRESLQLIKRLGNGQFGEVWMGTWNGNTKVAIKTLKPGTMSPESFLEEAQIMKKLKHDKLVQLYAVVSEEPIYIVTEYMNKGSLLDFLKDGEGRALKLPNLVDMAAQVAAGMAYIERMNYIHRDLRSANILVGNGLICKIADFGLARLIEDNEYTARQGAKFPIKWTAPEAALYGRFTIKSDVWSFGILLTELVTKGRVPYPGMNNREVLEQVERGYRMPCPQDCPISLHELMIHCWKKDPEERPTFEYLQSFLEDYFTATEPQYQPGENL
Chain of Proto-oncogene tyrosine-protein kinase LCK (Mus musculus) (P06240 2-509 limits assumed): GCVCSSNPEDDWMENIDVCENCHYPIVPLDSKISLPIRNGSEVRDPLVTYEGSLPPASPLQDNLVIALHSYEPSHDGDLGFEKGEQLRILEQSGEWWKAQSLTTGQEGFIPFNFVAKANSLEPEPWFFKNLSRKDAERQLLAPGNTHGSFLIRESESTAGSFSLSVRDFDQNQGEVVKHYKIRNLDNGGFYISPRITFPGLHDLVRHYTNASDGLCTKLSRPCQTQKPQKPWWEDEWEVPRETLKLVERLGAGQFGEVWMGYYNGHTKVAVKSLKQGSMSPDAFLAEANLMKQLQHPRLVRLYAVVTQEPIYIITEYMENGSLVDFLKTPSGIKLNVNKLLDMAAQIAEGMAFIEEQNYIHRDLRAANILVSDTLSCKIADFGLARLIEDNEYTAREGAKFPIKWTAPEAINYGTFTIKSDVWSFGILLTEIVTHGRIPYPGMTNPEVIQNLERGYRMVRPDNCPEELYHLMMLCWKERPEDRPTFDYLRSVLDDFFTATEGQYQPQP
Chain of Mitogen-activated protein kinase kinase kinase 8 (P41279 whole entry): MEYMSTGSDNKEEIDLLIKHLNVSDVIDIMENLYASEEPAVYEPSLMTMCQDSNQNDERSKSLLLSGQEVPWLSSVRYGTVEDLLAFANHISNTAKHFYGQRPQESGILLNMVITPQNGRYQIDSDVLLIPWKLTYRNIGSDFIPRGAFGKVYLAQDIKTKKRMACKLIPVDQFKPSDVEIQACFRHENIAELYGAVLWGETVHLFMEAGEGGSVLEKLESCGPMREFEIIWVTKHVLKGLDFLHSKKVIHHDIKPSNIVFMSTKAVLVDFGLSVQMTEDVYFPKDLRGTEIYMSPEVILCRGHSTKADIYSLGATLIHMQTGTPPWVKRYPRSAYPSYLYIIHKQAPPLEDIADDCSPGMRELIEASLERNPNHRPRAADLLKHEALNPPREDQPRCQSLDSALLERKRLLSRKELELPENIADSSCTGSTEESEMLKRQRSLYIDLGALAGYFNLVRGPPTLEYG
Chain of Tyrosine-protein kinase Fgr (P09769 whole entry): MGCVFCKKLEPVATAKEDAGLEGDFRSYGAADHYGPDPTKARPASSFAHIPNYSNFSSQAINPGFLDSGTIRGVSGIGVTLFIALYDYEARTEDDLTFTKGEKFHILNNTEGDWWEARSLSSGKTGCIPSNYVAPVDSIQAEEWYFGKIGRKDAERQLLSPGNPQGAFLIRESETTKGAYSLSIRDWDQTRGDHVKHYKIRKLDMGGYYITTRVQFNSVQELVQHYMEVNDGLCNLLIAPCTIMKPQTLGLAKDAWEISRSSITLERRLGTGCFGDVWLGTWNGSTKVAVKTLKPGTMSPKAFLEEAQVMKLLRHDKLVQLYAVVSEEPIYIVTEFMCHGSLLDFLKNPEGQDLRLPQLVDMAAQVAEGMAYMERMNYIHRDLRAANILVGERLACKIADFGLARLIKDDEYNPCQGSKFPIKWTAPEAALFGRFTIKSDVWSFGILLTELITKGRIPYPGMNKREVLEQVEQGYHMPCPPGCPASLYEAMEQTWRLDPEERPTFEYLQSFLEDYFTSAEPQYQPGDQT
Chain of Tyrosine-protein kinase Lyn (P07948 whole entry): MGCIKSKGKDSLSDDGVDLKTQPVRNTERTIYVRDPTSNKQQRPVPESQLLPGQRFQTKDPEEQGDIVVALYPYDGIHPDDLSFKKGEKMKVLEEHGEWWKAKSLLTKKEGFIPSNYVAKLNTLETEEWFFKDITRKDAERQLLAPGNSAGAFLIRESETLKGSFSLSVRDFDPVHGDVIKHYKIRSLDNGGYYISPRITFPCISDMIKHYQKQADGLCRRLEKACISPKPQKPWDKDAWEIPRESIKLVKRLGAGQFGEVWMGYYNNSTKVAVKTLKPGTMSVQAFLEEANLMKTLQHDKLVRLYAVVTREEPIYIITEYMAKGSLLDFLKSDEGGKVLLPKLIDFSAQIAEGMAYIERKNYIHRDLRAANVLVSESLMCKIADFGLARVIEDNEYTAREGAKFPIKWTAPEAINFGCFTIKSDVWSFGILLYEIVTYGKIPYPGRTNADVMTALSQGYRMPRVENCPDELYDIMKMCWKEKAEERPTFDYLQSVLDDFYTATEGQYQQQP
Chain of Proto-oncogene tyrosine-protein kinase Src (P12931 2-536 limits assumed): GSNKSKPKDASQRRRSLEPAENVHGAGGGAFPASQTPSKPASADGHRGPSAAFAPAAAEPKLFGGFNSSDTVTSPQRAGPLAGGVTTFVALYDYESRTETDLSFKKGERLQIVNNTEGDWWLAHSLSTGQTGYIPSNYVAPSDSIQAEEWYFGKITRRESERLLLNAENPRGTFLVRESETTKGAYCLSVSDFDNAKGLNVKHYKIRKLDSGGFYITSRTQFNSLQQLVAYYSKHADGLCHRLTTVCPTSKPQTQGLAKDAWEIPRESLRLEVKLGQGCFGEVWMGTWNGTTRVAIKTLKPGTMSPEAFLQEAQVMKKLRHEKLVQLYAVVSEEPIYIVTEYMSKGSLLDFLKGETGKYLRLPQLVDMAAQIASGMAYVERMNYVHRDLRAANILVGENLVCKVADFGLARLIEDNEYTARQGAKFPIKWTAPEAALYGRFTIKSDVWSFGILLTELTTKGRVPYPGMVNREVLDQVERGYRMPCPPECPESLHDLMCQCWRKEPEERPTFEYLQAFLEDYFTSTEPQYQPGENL

SMILES: COc1cc(-c2nn(C3CCN(C4CCOCC4)CC3)c3ncnc(N)c23)ccc1NC(=O)c1cc2cc(C(N)=O)ccc2n1C
IC50 [2]: > 50000 nM
IC50 [3]: > 50000 nM

SMILES: COc1cc(-c2nn(C3CCN(C4CCN(C(C)=O)CC4)CC3)c3ncnc(N)c23)ccc1NC(=O)c1cc2ccccc2n1C
IC50 [4]: 17200 nM
ED90 [5]: 19 mg/kg
IC50 [2]: ≥ 50000 nM
IC50 [3]: 74 nM

SMILES: COc1cc(-c2nn(C3CCN(C4CCOCC4)CC3)c3ncnc(N)c23)ccc1NC(=O)c1ccc(C(F)(F)F)cc1F
IC50 [1]: 40 nM
IC50 [2]: > 50000 nM
IC50 [3]: 102 nM

SMILES: COc1cc(-c2nn(C3CCN(C)CC3)c3ncnc(N)c23)ccc1NC(=O)c1ccc(C(F)(F)F)cc1F
IC50 [1]: 30 nM
IC50 [2]: > 50000 nM
IC50 [3]: 106 nM

SMILES: COc1cc(-c2nn(C3CCN(C4CCOCC4)CC3)c3ncnc(N)c23)ccc1NC(=O)c1ccc(C)cc1
IC50 [2]: > 50000 nM
IC50 [3]: 8960 nM

SMILES: COc1cc(-c2nn(C3CCN(C4CCOCC4)CC3)c3ncnc(N)c23)ccc1NC(=O)c1cc(O)c2ccccc2n1
IC50 [2]: > 50000 nM
IC50 [3]: 9180 nM

SMILES: COc1cc(-c2nn(C3CCN(C4CCOCC4)CC3)c3ncnc(N)c23)ccc1NC(=O)c1ccc(OC(F)(F)F)cc1
IC50 [2]: > 50000 nM
IC50 [3]: 2350 nM

SMILES: COc1cc(-c2nn(C3CCN(C4CCOCC4)CC3)c3ncnc(N)c23)ccc1NC(=O)c1cc2ccccc2n1C
ED90 [5]: 15.5 mg/kg
bioavailability [16]: 93%
half-life [20]: 3.1 h
IC50 [1]: 20 nM
IC50 [2]: > 50000 nM
IC50 [3]: 107 nM

The remaining compounds from weak to strong by IC50 [3], led by results:

IC50 [2]: > 50000 nM
IC50 [3]: 23200 nM
SMILES: COc1cc(-c2nn(C3CCN(C4CCOCC4)CC3)c3ncnc(N)c23)ccc1NC(=O)c1cccc(O)c1

IC50 [2]: 32500 nM
IC50 [3]: 3480 nM
SMILES: COc1cc(-c2nn(C3CCN(C4CCOCC4)CC3)c3ncnc(N)c23)ccc1NC(=O)c1cc2cc(C#N)ccc2n1C

IC50 [1]: 540 nM
IC50 [2]: > 50000 nM
IC50 [3]: 341 nM
SMILES: COc1cc(-c2nn(C3CCN(Cc4ccccc4)CC3)c3ncnc(N)c23)ccc1NC(=O)c1ccc(C(F)(F)F)cc1F

IC50 [1]: 54 nM
IC50 [2]: > 50000 nM
IC50 [3]: 318 nM
SMILES: COc1cc(-c2nn(C3CCN(C4CCOCC4)CC3)c3ncnc(N)c23)ccc1NC(=O)c1nc2ccccc2n1C

IC50 [6]: > 25000 nM
clearance [7]: 25 mL/min/kg
IC50 [8]: 1180 nM
Tmax [9]: 1 h
half-life [10]: 4.1 h
Vd [11]: 1.2 L/kg
Cmax [12]: 387 ng/mL
concentration (Rattus norvegicus [13]): 2900 nM
Cmax [14]: 2080 ng/mL
concentration (Rattus norvegicus [15]): 350 nM
bioavailability [16]: 27%
concentration (Rattus norvegicus [17]): 1060 nM
Vd [18]: 10.3 L/kg
IC50 [19]: > 25000 nM
half-life [20]: 4.7 h
IC50 [1]: 80 nM
EC50 [21]: 78 nM
Tmax [22]: 4.7 h
IC50 [23]: 14100 nM
clearance [24]: 3.33 mL/min/kg
IC50 [25]: > 25000 nM
bioavailability [26]: 52%
IC50 (Angiopoietin-1 receptor): > 50000 nM
IC50 [3]: 147 nM
SMILES: COc1cc(-c2nn([C@H]3CC[C@H](N4CCN(C(C)=O)CC4)CC3)c3ncnc(N)c23)ccc1NC(=O)c1cc2ccccc2n1C

IC50 [1]: 35 nM
IC50 [2]: > 50000 nM
IC50 [3]: 106 nM
SMILES: COc1cc(-c2nn(C3CCN(C4CCOCC4)CC3)c3ncnc(N)c23)ccc1NC(=O)c1ccc(N(C)C)cc1

IC50 [1]: 30 nM
IC50 [2]: > 50000 nM
IC50 [3]: 93 nM
SMILES: COc1cc(-c2nn(C3CCN(C4CCN(C(C)=O)CC4)CC3)c3ncnc(N)c23)ccc1NC(=O)c1ccc(C(F)(F)F)cc1F

IC50 [1]: 50 nM
IC50 [2]: > 50000 nM
IC50 [3]: 80 nM
SMILES: COc1cc(-c2nn(C3CCNCC3)c3ncnc(N)c23)ccc1NC(=O)c1ccc(C(F)(F)F)cc1F

IC50 [1]: 13 nM
IC50 [2]: 13600 nM
IC50 [3]: 54 nM
SMILES: COc1cc(-c2nn(C3CCN(C4CCOCC4)CC3)c3ncnc(N)c23)ccc1NC(=O)c1cc2cc(Cl)ccc2n1C

IC50 [1]: 20 nM
IC50 [2]: 1070 nM
IC50 [3]: 23 nM
SMILES: COc1cc(-c2nn(C3CCN(C4CCN(C)CC4)CC3)c3ncnc(N)c23)ccc1NC(=O)c1ccc(C(F)(F)F)cc1F
